Results on two molecules are retold here after patent publication US20090148886A1, “METHODS OF IDENTIFYING COMPOUNDS THAT DECREASE INTRAOCULAR PRESSURE” (The Arizona Board of Regents on behalf of the University of …, priority 2007, published 2009).

The subject of this test is C57BL/6 mice and Best2^+/+, Best2^+/−, Best2^−/− littermates. Kind of test: IOP measurement by cannulation of the anterior chamber in control and drug-treated Best2 mice. In kind it is in vivo, mouse. Conditions: for Mean IOP: 10 μL of solution topically to each eye 2 hours before cannulation, mean ± SE. Here is the method: IOP Measurements: IOP was measured in the mice by cannulation of the anterior chamber with Avertin® anesthesia (300 mg/kg injected intraperitoneally) as described in, e.g., Husain et al., Exp. Eye Res. 83:1453-1458, 2006; John et al., Invest. Ophthalmol. Vis. Sci. 38:249-253, 1997; Aihara et al., Invest. Ophthalmol. Vis. Sci. 44:5168-5173, 2003. In brief, the anterior chamber was cannulated with a borosilicate glass microneedle (1-mm outer diameter with a 50-μm inner diameter tip, beveled to 45°; Humagen, Charlottesville, Va.) filled with Hanks' balanced salt solution (HBSS) and connected to a pressure transducer (BLPR; World Precision Instruments, Sarasota, Fla.). The signal was amplified (Bridge8 amplifier; World Precision Instruments), converted from analog to digital (iWorx® model 108 converter; CB Sciences, Dover, N.H.), and recorded (LabScribe software ver. 1.6; CB Sciences, Dover, N.H.). IOP was recorded for a period of >90 seconds, and the IOP value determined from the average of each recording. […] All measurements were performed between 2 and 6 PM to avoid diurnal pressure variations. The apparatus was calibrated using a fluid reservoir the height of which could be adjusted to generate a series of known pressures. For experiments using timolol (0.5% solution; Bausch & Lomb, Tampa, Fla.) or brinzolamide (Azopt® 1% solution; Alcon, Fort Worth, Tex.), 10 μL of solution was administrated topically to each eye 2 hours before cannulation.

For `CCN[C@H]1CN(CCCOC)S(=O)(=O)c2sc(S(N)(=O)=O)cc21` [Brinzolamide, brinzolamide], for the setting “Best2^+/+ (so in the source) and Best2^−/− mice, lower than in C57BL/6 or Best2^+/+ mice”, the “IOP after treatment compared with treated C57BL/6 or Best2^+/+ mice” value is given as “approximately 1 mm Hg”. In addition, the “Mean IOP” value reads like this: (Best2^+/+ mice) 10.08 ± 0.33 mm Hg; (Best2^+/− mice) 9.56 ± 0.37 mm Hg; (Best2^−/− mice) 9.34 ± 0.34 mm Hg; (C57BL/6 mice) 10.51 ± 0.51 mm Hg. Moreover, the “Effect on IOP (in words)” value (all mice tested) was “effective in lowering IOP in all mice tested”.
In the case of `CC(C)(C)NC[C@H](O)COc1nsnc1N1CCOCC1` [Timolol, timolol], the “Mean IOP” value came to 9.57 ± 0.22 mm Hg (Best2^+/+ mice), 9.48 ± 0.12 mm Hg (Best2^+/− mice), 9.49 ± 0.18 mm Hg (Best2^−/− mice) and 10.53 ± 0.29 mm Hg (C57BL/6 mice). Besides, the “Effect on IOP (in words)” value was “less effective in lowering IOP” (Best2^−/− mice); “lowered IOP significantly” (C57BL/6 and Best2^+/+ mice, P<0.005).
